Data on 1 molecule can be found in patent US6309630A, “Non-steroidal anti-inflammatory ophthalmic suspensions” (Insite Vision Incorporated, priority 1994, dated 2001).

Each structure is given as a SMILES string.

The nature of this data set: Percent Diclofenac Sodium in Suspension (dependence on concentration and pH). Format: physicochemical. To be noted: below a pH of about 6.8; formulation containing 1% diclofenac sodium. The text has this:
The solubility of non-steroidal anti-inflammatory agents is pH dependent, i.e., normally the higher the pH, the higher the solubility of the drug in the formulation. […] Formulating the composition as a suspension rather than as a solution inhibits immediate contact between the drug and tissues of the eye and in that way reduces the stinging and burning sensation experienced when a solution of such drugs places all of the drug in immediate contact with the ocular tissues.
Thus, by providing at least some of the diclofenac in suspension, via pH control, lower transient burning and stinging would be observed when administered to patients.

Consider `O=C(O)Cc1ccccc1Nc1c(Cl)cccc1Cl` [Diclofenac Sodium, sodium ortho-(2,6-dichlorophenyl)aminophenylacetate acid], for which the “diclofenac in suspension (in words)” value is “virtually all of the diclofenac in suspension”.
